Data as given in ChEMBL document CHEMBL5370686, “Design of Novel Series of Antimalarial PMX Inhibitors with Increased Half-Life via Molecular Property Optimization” (ACS Med Chem Lett, 2023).
pIC50: −log10 of the molar value. ≈ marks a conversion by molar mass, not a printed value.

How the values were obtained:
Plasmepsin X = Plasmepsin X (Plasmodium falciparum (isolate 3D7), UniProt Q8IAS0); experiment: Inhibition of Plasmodium falciparum Plasmepsin X using Dabcyl-GSMLEVENDAEG-EDANS as substrate preincubated for 30 mins followed by substrate addition and measured every 2 mins for 30 mins by FRET assay
[1] = Solubility of compound in FeSSIF at pH 5.8 incubated for 1 hr by LC/MS analysis; assay type: physicochemical
[2] = Intrinsic clearance in human hepatocytes assessed per 10^6 cells at 0.5 uM measured after 120 min by HRMS method; assay type: ADME, cell-based, Hepatocyte; details: read-out: CLH
[3] = Lipophilicity, log D of the compound in octanol/phosphate buffer at pH 7.4 incubated for 90 mins by shake flask method based LC-MS analysis; assay type: physicochemical; details: for logD at 1.5 h: octanol/phosphate buffer, pH 7.4
[4] = Apparent oral bioavailability in Sprague-Dawley rat plasma at 10 mg/kg administered via gavage by LC-MS/MS analysis; assay type: ADME, organism-based; details: read-out: Fapp
Plasmodium falciparum = experiment: Antimalarial activity against Plasmodium falciparum 3D7 by SYBR green 1 assay; assay type: functional, organism-based; details: for pIC50: Plasmodium falciparum, 3D7
[5] = test system: Cathepsin D versus Plasmepsin X; experiment: Selectivity ratio of IC50 for human Cathepsin D to IC50 for Plasmodium falciparum Plasmepsin X; assay type: toxicity; details: read-out: Ratio IC50
Cathepsin D = Cathepsin D (Homo sapiens, UniProt P07339); experiment: Inhibition of human Cathepsin D using Mca-GKPILFFRLK(Dnp)-D-R-NH2 as substrate preincubated for 30 mins followed by substrate addition and measured after 60 mins by FRET assay; assay type: toxicity
[6] = Drug level treated with (S)-6-(2,3'-dichloro-[1,1'-biphenyl]-3-yl)-2-imino-6-methyl-3-((2S,4S)-2-methyltetrahydro-2H-pyran-4-yl)tetrahydropyrimidin-4(1H)-one in human hepatocytes at 2 uM measured after 120 mins by UHPLC-MS analysis; assay type: ADME, cell-based, Hepatocyte
[7] = Volume of distribution at steady state in Sprague-Dawley rat plasma at 1 mg/kg, iv administered via bolus by LC-MS/MS analysis; assay type: ADME, organism-based; details: read-out: Vdss
[8] = Cmax in Sprague-Dawley rat plasma at 10 mg/kg, po administered via gavage by LC-MS/MS analysis; assay type: ADME, organism-based; set-up: dose 10 mg/kg, route po
[9] = AUC in Sprague-Dawley rat plasma at 1 mg/kg, iv administered via bolus at LC-MS/MS analysis; assay type: ADME, organism-based; set-up: dose 1 mg/kg, route iv
[10] = AUC in Sprague-Dawley rat plasma at 10 mg/kg, po administered via gavage by LC-MS/MS analysis; assay type: ADME, organism-based; set-up: dose 10 mg/kg, route po
[11] = Clearance in Sprague-Dawley rat plasma at 1 mg/kg, iv administered via bolus by LC-MS/MS analysis; assay type: ADME, organism-based
[12] = Tmax in Sprague-Dawley rat plasma at 10 mg/kg, po administered via gavage by LC-MS/MS analysis; assay type: ADME, organism-based
[13] = Half-life in Sprague-Dawley rat plasma at 1 mg/kg, iv administered via bolus at LC-MS/MS analysis; assay type: ADME, organism-based
[14] = Drug metabolism in human hepatocytes at 2 uM measured after 120 mins by UHPLC-MS analysis; assay type: ADME, cell-based, Hepatocyte; details: 2 h
[15] = Drug metabolism in human hepatocytes assessed as (S)-4-(2,3'-dichloro-[1,1'-biphenyl]-3-yl)-4-methyltetrahydropyrimidin-2(1H)-imine formation at 2 uM measured after 120 mins by UHPLC-MS analysis; assay type: ADME, cell-based, Hepatocyte; details: 2 h

Cathepsin D, sequence (P07339 65-162 limits assumed): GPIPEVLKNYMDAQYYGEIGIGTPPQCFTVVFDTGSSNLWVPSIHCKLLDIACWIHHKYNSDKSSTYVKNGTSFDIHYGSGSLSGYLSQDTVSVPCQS
Cathepsin D, sequence (P07339 169-412 limits assumed): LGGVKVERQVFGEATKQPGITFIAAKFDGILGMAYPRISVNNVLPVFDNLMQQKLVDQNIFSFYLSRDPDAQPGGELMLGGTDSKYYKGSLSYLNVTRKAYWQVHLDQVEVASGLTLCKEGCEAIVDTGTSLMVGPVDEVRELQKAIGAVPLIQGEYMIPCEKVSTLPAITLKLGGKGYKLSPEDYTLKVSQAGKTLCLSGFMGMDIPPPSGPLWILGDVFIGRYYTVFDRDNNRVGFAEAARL
Plasmepsin X, sequence (Q8IAS0 whole entry): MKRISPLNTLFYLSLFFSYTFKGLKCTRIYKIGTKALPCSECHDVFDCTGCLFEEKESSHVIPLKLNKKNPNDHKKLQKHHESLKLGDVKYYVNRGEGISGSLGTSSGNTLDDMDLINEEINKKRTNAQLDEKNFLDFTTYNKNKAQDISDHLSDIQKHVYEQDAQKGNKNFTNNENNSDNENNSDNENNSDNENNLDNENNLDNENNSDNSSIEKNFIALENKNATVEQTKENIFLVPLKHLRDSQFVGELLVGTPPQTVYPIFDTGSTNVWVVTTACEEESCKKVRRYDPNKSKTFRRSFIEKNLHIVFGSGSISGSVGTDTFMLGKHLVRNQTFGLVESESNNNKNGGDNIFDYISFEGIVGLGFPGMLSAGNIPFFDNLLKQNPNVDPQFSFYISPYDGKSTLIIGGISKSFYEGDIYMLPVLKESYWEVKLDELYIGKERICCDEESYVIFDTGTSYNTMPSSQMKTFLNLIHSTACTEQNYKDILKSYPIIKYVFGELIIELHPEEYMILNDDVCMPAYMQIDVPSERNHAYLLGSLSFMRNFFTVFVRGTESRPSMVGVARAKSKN

Row | SMILES | pIC50 (Plasmepsin X) | solubility at 1 h [1] | hepatocyte CLint at 0.5 µM [2] | logD at 1.5 h [3] | bioavailability [4] | FIC50 (Plasmodium falciparum) | pIC50 (Plasmodium falciparum) | selectivity ratio [5] | pIC50 (Cathepsin D) | logD ([3]; octanol/water, pH 7.4, 1.5 h, BLD = below limit of detection) | Drug uptake [6] | Vd [7] | Cmax [8] | AUC [9] | AUC [10] | clearance [11] | Tmax [12] | half-life [13] | Drug metabolism [14] | Drug metabolism [15]
1 | C[C@H]1C[C@@H](N2C(=N)N[C@](C)(c3cccc(NC(=O)c4cccc(C#N)c4)c3Cl)CC2=O)CCO1 | 8.12 | 1020 µM (≈ 490 µg/mL) | 4 µL/min/1e6 cells | 1.3 | 18% | 7.7 nM | 8.08 | 555 | – | – | – | – | – | – | – | – | – | – | – | –
2 | C[C@@H]1C[C@H](N2C(=N)N[C@](C)(c3cccc(-c4cccc(Cl)c4)c3Cl)CC2=O)CC[C@@H]1O | 8.00 | > 1500 µM | 25 µL/min/1e6 cells | 3.5 | – | 40.9 nM | 6.61 | 4.7 | 7.33 | – | – | – | – | – | – | – | – | – | – | –
3 | C[C@H]1C[C@@H](N2C(=N)N[C@](C)(c3cccc(-c4ccc(OC(F)(F)F)cc4Cl)c3Cl)CC2=O)CCO1 | 8.02 | 833 µM (≈ 442 µg/mL) | < 3 µL/min/1e6 cells | – | – | 0.8 nM | 7.11 | 176 | 5.80 | Bld | – | – | – | – | – | – | – | – | – | –
4 | C[C@H]1C[C@@H](N2C(=N)N[C@](C)(c3cccc(-c4ccc(Cl)cc4Cl)c3Cl)CC2=O)CCO1 | 8.28 | 69 µM (≈ 33.2 µg/mL) | 5.7 µL/min/1e6 cells | 3.4 | – | 3.5 nM | 7.18 | 154 | 6.11 | – | – | – | – | – | – | – | – | – | – | –
5 | C[C@H]1C[C@@H](N2C(=N)N[C@](C)(c3cccc(-c4ccc(C5CC5)nc4)c3Cl)CC2=O)CCS1(=O)=O | 7.89 | – | < 3 µL/min/1e6 cells | 2 | – | 27.1 nM | 7.06 | 206 | 5.57 | – | – | – | – | – | – | – | – | – | – | –
6 | C[C@H]1C[C@@H](N2C(=N)N[C@](C)(c3cccc(-c4ccc5ncn(CC(F)(F)F)c5c4)c3Cl)CC2=O)CCO1 | 7.95 | 378 µM (≈ 202 µg/mL) | 46 µL/min/1e6 cells | 2.5 | – | 12.4 nM | 7.58 | 0.3 | 8.41 | – | – | – | – | – | – | – | – | – | – | –
7 | C[C@H]1C[C@@H](N2C(=N)N[C@](C)(c3cccc(-c4ccccc4Cl)c3Cl)CC2=O)CCO1 | 7.96 | 562 µM (≈ 251 µg/mL) | 29 µL/min/1e6 cells | 3 | – | 28.4 nM | 6.98 | 204 | 5.65 | – | – | – | – | – | – | – | – | – | – | –
8 | C[C@@]1(c2cccc(-c3cccc(Cl)c3)c2Cl)CC(=O)N([C@H]2CCOC[C@@H]2O)C(=N)N1 | 7.25 | 1390 µM (≈ 624 µg/mL) | 8.2 µL/min/1e6 cells | 2.4 | – | 135.6 nM | 6.49 | 3.9 | 6.65 | – | – | – | – | – | – | – | – | – | – | –
9 | C[C@@]1(c2cccc(-c3ccc(F)cc3F)c2Cl)CC(=O)N([C@H]2CCC(F)(F)[C@@H](O)C2)C(=N)N1 | 7.63 | – | 4.7 µL/min/1e6 cells | 2.4 | – | 32.5 nM | 6.55 | 17 | 6.40 | – | – | – | – | – | – | – | – | – | – | –
10 | C[C@H]1C[C@@H](N2C(=N)N[C@](C)(c3cccc(-c4cncc(Cl)c4)c3Cl)CC2=O)CCO1 | 8.06 | > 1500 µM | 75 µL/min/1e6 cells | 2.5 | – | 15.2 nM | 7.67 | 3.5 | 7.49 | – | – | – | – | – | – | – | – | – | – | –
11 | C[C@@]1(c2cccc(-c3cccc(Cl)c3)c2Cl)CCNC(=N)N1 | – | – | – | – | – | – | – | – | – | – | Active | – | – | – | – | – | – | – | – | –
12 | C[C@H]1C[C@@H](N2C(=N)N[C@](C)(c3cccc(-c4ccc(F)cc4F)c3Cl)CC2=O)CCS1(=O)=O | 7.99 | 1130 µM (≈ 558 µg/mL) | 3.3 µL/min/1e6 cells | 2.4 | – | 16.7 nM | 7.13 | 36.5 | 6.44 | – | – | – | – | – | – | – | – | – | – | –
13 | C[C@H]1C[C@@H](N2C(=N)N[C@](C)(c3cccc(-c4ccc(OC(F)(F)F)nc4)c3Cl)CC2=O)CCS1(=O)=O | 7.95 | 697 µM (≈ 380 µg/mL) | < 3 µL/min/1e6 cells | 2.4 | 29% | 27.9 nM | 6.97 | 140 | 5.81 | – | – | 13.1 L/kg | 423 nM | 1.6 µM·h | 4.68 µM·h | 20 mL/min/kg | 4 h | 9.2 h | – | –
14 | C[C@H]1C[C@@H](N2C(=N)N[C@](C)(c3cccc(-c4cnn5cccnc45)c3Cl)CC2=O)CCO1 | 7.65 | > 1500 µM | 18 µL/min/1e6 cells | 1.2 | – | 131.3 nM | 6.86 | 59 | 5.89 | – | – | – | – | – | – | – | – | – | – | –
15 | C[C@H]1C[C@@H](N2C(=N)N[C@](C)(c3cccc(-c4cccc(Cl)c4)c3Cl)CC2=O)CCO1 | 8.11 | 664 µM (≈ 296 µg/mL) | 26 µL/min/1e6 cells | 3.7 | – | 16.2 nM | 7.03 | 1.3 | 7.97 | – | – | – | – | – | – | – | – | – | Metabolite_Detected | Metabolite_Detected
16 | C[C@H]1C[C@@H](N2C(=N)N[C@](C)(c3cccc(-c4ccc(F)cc4F)c3Cl)CC2=O)CCN1C | 6.58 | > 1500 µM | 8.2 µL/min/1e6 cells | 1.8 | – | 37.4 nM | 7.03 | 14.5 | 5.42 | – | – | – | – | – | – | – | – | – | – | –
17 | C[C@H]1C[C@@H](N2C(=N)N[C@](C)(c3cccc(-c4ccc(OC(F)F)nc4)c3Cl)CC2=O)CCS1(=O)=O | 7.97 | 1030 µM (≈ 543 µg/mL) | < 3 µL/min/1e6 cells | 2.1 | – | 23.4 nM | 7.07 | 53.9 | 6.23 | – | – | – | – | – | – | – | – | – | – | –
18 | CN(C)[C@H]1C[C@@H](N2C(=N)N[C@](C)(c3cccc(-c4ccc(F)cc4F)c3Cl)CC2=O)C1 | 5.64 | > 1500 µM | 16 µL/min/1e6 cells | 1.5 | – | 251.5 nM | 6.18 | 12.5 | 4.55 | – | – | – | – | – | – | – | – | – | – | –
19 | C[C@H]1C[C@@H](N2C(=N)N[C@](C)(c3cccc(-c4ccc(F)cc4F)c3Cl)CC2=O)CCO1 | 8.03 | 1010 µM (≈ 451 µg/mL) | 18 µL/min/1e6 cells | 2.9 | – | 21.3 nM | 7.02 | 71 | 6.19 | – | – | – | – | – | – | – | – | – | – | –
